Experimental findings from US4684639A, “Antibacterial penicillins and cephalosporins” (Beecham Group, priority 1983, dated 1987) are described below.

Molecules are shown by their SMILES. Counter-ions that a name gives are not always drawn.

One test has as its system P. mirabilis 899. Kind of test: MIC against P. mirabilis 899. It counts as cell-based. The following applies: Proteus mirabilis. From the text: (§1) The antibiotic compounds of the present invention are active against a wide range of gram negative and gram positive organisms including E. coli such as, for example ESS, JT4, JT425 and NCTC 10418; Pseudomonas Spp. such as Ps.aeruginosa for example 10622 and Dalgleish; Serratia marcescens US32; Klebsiella aerogenes A; Enterobacter cloacae N1; P.mirabilis such as, for example C977 and 889; P.morganii, P.rettgeri; B.subtilis; Staph. aureus such as, for example Oxford and Russell; N.catarrhalis 1502; Strep faecalis I; β-Haemolytic Strep CN10. The MIC data included in the following examples is representative of the activity of the compounds of the present invention.
A word on the MIC: it is the lowest concentration found to suppress growth. Molecule `CCN1CCN(C(=O)N[C@@H](C(=O)N[C@]2(NC=O)C(=O)N3C(C(=O)O)=C(COC(C)=O)CS[C@@H]32)c2cc(OC(C)=O)c(OC(C)=O)cc2F)C(=O)C1=O` [Example 17, 7β[D-2-(4,5-Diacetoxy-2-fluorophenyl)-2-[(4-ethyl-2,3-dioxopiperazin-1-yl)carbonylamino]acetamido]-7α-formamidocephalosporanate, sodium salt] had an MIC of 0.5 µg/mL.

Molecule `CCN1CCN(C(=O)N[C@@H](C(=O)N[C@]2(NC=O)C(=O)N3C(C(=O)O)=C(COC(C)=O)CS[C@@H]32)c2cc(OC(C)=O)c(OC(C)=O)cc2Br)C(=O)C1=O` [Example 13, 7β[D-2-(2-Bromo-4,5-diacetoxyphenyl)-2-[(4-ethyl-2,3-dioxopiperazin-1-yl)carbonylamino]acetamido]-7α-formamidocephalosporanate, sodium salt] gave a minimal inhibitory concentration (MIC) of 0.25 µg/mL.

The test system of another test is Proteus mirabilis 889. Kind of test: MIC against Proteus mirabilis 889. It counts as cell-based.
Conditions: not given
Description: as §1
As for `CCN1CCN(C(=O)N[C@@H](C(=O)N[C@]2(NC=O)C(=O)N3C(C(=O)O)=C(COC(C)=O)CS[C@@H]32)c2cc(OC(C)=O)c(OC(C)=O)cc2Cl)C(=O)C1=O` [Example 14, 7β-[D-2-(2-chloro-4,5-diacetoxyphenyl)-2-[(4-ethyl-2,3-dioxopiperazin-1-yl)carbonylamino]acetamido]-7α-formamidocephalosporanate, sodium salt], the minimum inhibitory concentration (MIC) was less than 0.06 µg/mL.

Molecule `CCN1CCN(C(=O)NC(C(=O)N[C@]2(NC=O)C(=O)N3[C@@H](C(=O)O)C(C)(C)S[C@@H]32)c2cc(OC(C)=O)c(OC(C)=O)cc2Cl)C(=O)C1=O` (stereo partly drawn) [Example 5, Sodium 6,β-[D,L-2-(2-chloro-4,5-diacetoxyphenyl)-2-(2,3-dioxo-4-ethylpiperazin-1-ylcarbonylamino)acetamido]-6,α-formamidopenicillanate] gave an MIC of less than 0.06 µg/mL.

With `CCN1CCN(C(=O)N[C@@H](C(=O)N[C@]2(NC=O)C(=O)N3[C@@H](C(=O)O)C(C)(C)S[C@@H]32)c2cc(OC(C)=O)c(OC(C)=O)cc2Cl)C(=O)C1=O` [Example 6], the minimal inhibitory concentration (MIC) was less than 0.06 µg/mL.

`CCN1CCN(C(=O)N[C@@H](C(=O)N[C@]2(NC=O)C(=O)N3[C@@H](C(=O)O)C(C)(C)S[C@@H]32)c2cc(O)c(O)cc2F)C(=O)C1=O` [Example 16, Sodium 6,β-[D-2-(4,5-dihydroxy-2-fluorophenyl)-2-(2,3-dioxo-4-ethylpiperazin-1-ylcarbonylamino)acetamido]-6,α-formamidopenicillanate] displayed an MIC of 0.25 µg/mL.

In turn, `CCN1CCN(C(=O)N[C@@H](C(=O)N[C@]2(NC=O)C(=O)N3[C@@H](C(=O)O)C(C)(C)S[C@@H]32)c2cc(OC(C)=O)c(OC(C)=O)cc2F)C(=O)C1=O` [Example 8, Sodium 6,β-[D-2-(4,5-diacetoxy-2-fluorophenyl)-2-(2,3-dioxo-4-ethylpiperazin-1-ylcarbonylamino)acetamido]-6,α-formamidopenicillanate] came in with a minimal inhibitory concentration (MIC) of less than 0.06 µg/mL.

Take `CCN1CCN(C(=O)NC(C(=O)N[C@]2(OC)C(=O)N3[C@@H](C(=O)O)C(C)(C)S[C@@H]32)c2cc(OC(C)=O)c(OC(C)=O)cc2Cl)C(=O)C1=O` (stereo partly drawn) [Example 4, Sodium 6,β-[D,L-2-(2-chloro-4,5-diacetoxyphenyl)-2-(2,3-dioxo-4-ethylpiperazin-1-ylcarbonylamino)acetamido]-6,α-methoxypenicillanate]: inhibition of growth (MIC) required 4 µg/mL.

In the case of `CCN1CCN(C(=O)N[C@@H](C(=O)N[C@]2(NC=O)C(=O)N3C(C(=O)O)=C(CSc4nnnn4C)CS[C@@H]32)c2cc(OC(C)=O)c(OC(C)=O)cc2Cl)C(=O)C1=O` [Example 15, 7β-[D-2-(2-Chloro-4,5-diacetoxyphenyl)-2-[(4-ethyl-2,3-dioxopiperazin-1-yl)carbonylamino]acetamido]-7α-formamido-3-[(1-methyl-1H-tetrazol-5-yl)thiomethyl]ceph-3-em-4-carboxylic acid, sodium salt], the minimum inhibitory concentration (MIC) was found to be 0.06 µg/mL.

The subject of the next test is Klebsiella aerogenes A. Kind of test: MIC against Klebsiella aerogenes A. It counts as cell-based.
Conditions: not given
Description: as §1
Regarding `CCN1CCN(C(=O)NC(C(=O)N[C@@H]2C(=O)N3[C@@H](C(=O)O)CS[C@H]23)c2cc(OC(C)=O)c(OC(C)=O)cc2Cl)C(=O)C1=O` (stereo partly drawn) [Example 2, Sodium 6,β[D,L-2-(2-chloro-4,5-diacetoxyphenyl)-2-(2,3-dioxo-4-ethylpiperazin-1-ylcarbonylamino)acetamido]bisnorpeniclllanate], the MIC is less than 0.06 µg/mL.

As for `CCN1CCN(C(=O)NC(C(=O)N[C@@H]2C(=O)N3[C@@H]2SC(C)(C)[C@@H]3C(=O)O)c2cc(OC(C)=O)c(OC(C)=O)cc2F)C(=O)C1=O` (stereo partly drawn) [Example 7, Sodium 6,β-[D,L-2-(4,5-diacetoxy-2-fluorophenyl)-2-(2,3-dioxo-4-ethylpiperazin-1-ylcarbonylamino)acetamido]penicillanate], the MIC is 0.5 µg/mL.

The molecule `CCN1CCN(C(=O)NC(C(=O)N[C@@H]2C(=O)N3[C@@H]2SC(C)(C)[C@@H]3C(=O)O)c2cc(OC(C)=O)c(OC(C)=O)cc2Br)C(=O)C1=O` (stereo partly drawn) [Example 10, Sodium 6,β-[D,L-2-(2-bromo-4,5-diacetoxyphenyl)-2-(2,3-dioxo-4-ethylpiperazin-1-ylcarbonylamino)acetamido]penicillanate] yielded a minimum inhibitory concentration (MIC) of 1 µg/mL.

Turning to `CCN1CCN(C(=O)N[C@@H](C(=O)N[C@@H]2C(=O)N3[C@@H]2SC(C)(C)[C@@H]3C(=O)O)c2cc(OC(C)=O)c(OC(C)=O)cc2Cl)C(=O)C1=O` [Example 9, Sodium 6,β-[D-2-(2-chloro-4,5-diacetoxyphenyl)-2-(2,3-dioxo-4-ethylpiperazin-1-ylcarbonylamino)acetamido]penicillanate], the MIC turned out to be 0.25 µg/mL.

For the molecule `CCN1CCN(C(=O)N[C@@H](C(=O)N[C@@H]2C(=O)N3[C@@H]2SC(C)(C)[C@@H]3C(=O)O)c2cc(O)c(O)cc2F)C(=O)C1=O` [Example 11, Sodium 6,β-[D-2-(4,5-dihydroxy-2-fluorophenyl)-2-(2,3-dioxo-4-ethylpiperazin-1-ylcarbonylamino)acetamido]penicillanate], it took 1 µg/mL to inhibit growth (MIC).

Regarding `CCN1CCN(C(=O)NC(C(=O)N[C@@H]2C(=O)N3[C@@H]2SC(C)(C)[C@@H]3C(=O)O)c2cc(O)c(O)cc2Cl)C(=O)C1=O` (stereo partly drawn) [Example 1, Sodium 6,β-[D,L-2-(2-chloro-4,5-dihydroxyphenyl)-2-(2,3-dioxo-4-ethylpiperazin-1-ylcarbonylamino)acetamido penicillanate], the minimum inhibitory concentration (MIC) was less than 0.06 µg/mL.
